Numbered stars: 1 amine (or outer) side, 2 acyl side, 3 side chain; on linkers, the order of the positions; unused ones are H or OH. Bridge positions count the residues as written; N and C are the ends. Square brackets hold non-standard residues; d marks the D form. Peptide text beside a SMILES is read from it. I, II: the chains in the order shown. X3 = CN(CCCNC(=O)CCNC(=O)CCSCC(=O)[*:1])CCCNC(=O)CCNC(=O)CCSCC(=O)[*:2]; Phe(4-guanidino) = N=C(N)Nc1ccc(C[C@H](N)C(=O)O)cc1; X1 = O=C(C(=O)[*:2])[C@H](Cc1ccc(O)cc1)N[*:1]; NHCH2CH2N(Me)CH2CO = CN(CCN[*:1])CC(=O)[*:2]; NMeL = CN[C@@H](CC(C)C)C(=O)O; Pen = CC(C)(S)[C@H](N)C(=O)O; Suc = O=C(CCC(=O)[*:2])[*:1]; Sar = CNCC(=O)O

In one experiment the target is T1, IgG receptor FcRn large subunit p51 (Homo sapiens, UniProt P55899). Description: Ratio of RF-Pen-TGHFG-Sar-NMeLeu-YPC IC50 to compound IC50 for soluble human FcRn.
T1 sequence (P55899 whole entry): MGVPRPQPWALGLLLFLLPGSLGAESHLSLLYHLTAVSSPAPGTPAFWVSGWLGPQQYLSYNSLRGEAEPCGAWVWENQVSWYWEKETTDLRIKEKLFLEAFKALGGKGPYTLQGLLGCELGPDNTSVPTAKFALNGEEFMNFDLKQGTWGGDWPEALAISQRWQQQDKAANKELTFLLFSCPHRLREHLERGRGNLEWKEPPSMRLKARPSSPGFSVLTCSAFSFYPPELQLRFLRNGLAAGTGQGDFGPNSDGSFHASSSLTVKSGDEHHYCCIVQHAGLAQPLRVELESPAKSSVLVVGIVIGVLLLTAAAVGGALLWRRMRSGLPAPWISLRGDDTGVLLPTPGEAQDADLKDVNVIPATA
With `CC(C)C[C@H]1C(=O)N[C@@H](Cc2ccc(O)cc2)C(=O)C(=O)N2CCC[C@H]2C(=O)N[C@H](C(N)=O)CSSC(C)(C)[C@H](NC(=O)[C@H](Cc2ccccc2)NC(=O)[C@H](CCCNC(=N)N)NC(=O)CCNC(=O)CCNC(=O)CCNC(=O)CN(C)CCNC(=O)CCC(=O)N[C@@H](CCCNC(=N)N)C(=O)N[C@@H](Cc2ccccc2)C(=O)N[C@@H]2C(=O)N[C@@H]([C@@H](C)O)C(=O)NCC(=O)N[C@@H](Cc3c[nH]cn3)C(=O)N[C@@H](Cc3ccccc3)C(=O)NCC(=O)N(C)CC(=O)N(C)[C@@H](CC(C)C)C(=O)N[C@@H](Cc3ccc(O)cc3)C(=O)C(=O)N3CCC[C@H]3C(=O)N[C@H](C(N)=O)CSSC2(C)C)C(=O)N[C@@H]([C@@H](C)O)C(=O)NCC(=O)N[C@@H](Cc2c[nH]cn2)C(=O)N[C@@H](Cc2ccccc2)C(=O)NCC(=O)N(C)CC(=O)N1C`, the Ratio IC50 worked out at 220.

The next experiment addresses T1, IgG receptor FcRn large subunit p51. The experiment can be described thus: Inhibition of IgG binding to soluble human FcRn after 2 hrs by competition ELISA.
The molecule `CC(C)C[C@H]1C(=O)N[C@@H](Cc2ccc(O)cc2)C(=O)C(=O)N2CCC[C@H]2C(=O)N[C@H](C(N)=O)CSSC(C)(C)[C@H](NC(=O)[C@H](Cc2ccccc2)NC(=O)[C@H](CCCNC(=N)N)NC(=O)CCOCCOCCOCCOCCOCCC(=O)N[C@@H](CCCNC(=N)N)C(=O)N[C@@H](Cc2ccccc2)C(=O)N[C@@H]2C(=O)N[C@@H]([C@@H](C)O)C(=O)NCC(=O)N[C@@H](Cc3cnc[nH]3)C(=O)N[C@@H](Cc3ccccc3)C(=O)NCC(=O)N(C)CC(=O)N(C)[C@@H](CC(C)C)C(=O)N[C@@H](Cc3ccc(O)cc3)C(=O)C(=O)N3CCC[C@H]3C(=O)N[C@H](C(N)=O)CSSC2(C)C)C(=O)N[C@@H]([C@@H](C)O)C(=O)NCC(=O)N[C@@H](Cc2cnc[nH]2)C(=O)N[C@@H](Cc2ccccc2)C(=O)NCC(=O)N(C)CC(=O)N1C` came in with an IC50 of 4.8 nM. `CC(C)C[C@H]1C(=O)N[C@@H](Cc2ccc(O)cc2)C(=O)C(=O)N2CCC[C@H]2C(=O)N[C@H](C(N)=O)CSSC(C)(C)[C@H](NC(=O)[C@H](Cc2ccccc2)NC(=O)[C@H](CCCNC(=N)N)NC(=O)CC(C)(C)CC(=O)N[C@@H](CCCNC(=N)N)C(=O)N[C@@H](Cc2ccccc2)C(=O)N[C@@H]2C(=O)N[C@@H]([C@@H](C)O)C(=O)NCC(=O)N[C@@H](Cc3cnc[nH]3)C(=O)N[C@@H](Cc3ccccc3)C(=O)NCC(=O)N(C)CC(=O)N(C)[C@@H](CC(C)C)C(=O)N[C@@H](Cc3ccc(O)cc3)C(=O)C(=O)N3CCC[C@H]3C(=O)N[C@H](C(N)=O)CSSC2(C)C)C(=O)N[C@@H]([C@@H](C)O)C(=O)NCC(=O)N[C@@H](Cc2cnc[nH]2)C(=O)N[C@@H](Cc2ccccc2)C(=O)NCC(=O)N(C)CC(=O)N1C` came in with an IC50 of 5 nM. `CC(C)C[C@H]1C(=O)N[C@@H](Cc2ccc(O)cc2)C(=O)C(=O)N2CCC[C@H]2C(=O)N[C@H](C(N)=O)CSSC(C)(C)[C@H](NC(=O)[C@H](Cc2ccccc2)NC(=O)[C@H](CCCNC(=N)N)NC(=O)CCC(=O)NCCN(C)CC(=O)N[C@@H](CCCNC(=N)N)C(=O)N[C@@H](Cc2ccccc2)C(=O)N[C@@H]2C(=O)N[C@@H]([C@@H](C)O)C(=O)NCC(=O)N[C@@H](Cc3cnc[nH]3)C(=O)N[C@@H](Cc3ccccc3)C(=O)N[C@H]3CCCN(CC(=O)N(C)[C@@H](CC(C)C)C(=O)N[C@@H](Cc4ccc(O)cc4)C(=O)C(=O)N4CCC[C@H]4C(=O)N[C@H](C(N)=O)CSSC2(C)C)C3=O)C(=O)N[C@@H]([C@@H](C)O)C(=O)NCC(=O)N[C@@H](Cc2cnc[nH]2)C(=O)N[C@@H](Cc2ccccc2)C(=O)N[C@H]2CCCN(CC(=O)N1C)C2=O`: the IC50 was determined as 3.9 nM. On the same count and under the same terms, the same measure for `CC(C)C[C@H]1C(=O)N[C@@H](Cc2ccc(O)cc2)C(=O)C(=O)N2CCC[C@H]2C(=O)N[C@H](C(N)=O)CSSC(C)(C)[C@H](NC(=O)[C@H](Cc2ccccc2)NC(=O)[C@H](CCCNC(=N)N)NC(=O)CN(C)CCNC(=O)CNC(=O)[C@@H]2CSSC(C)(C)[C@H](NC(=O)[C@H](Cc3ccccc3)NC(=O)[C@@H](N)CCCNC(=N)N)C(=O)N[C@@H]([C@@H](C)O)C(=O)NCC(=O)N[C@@H](Cc3cnc[nH]3)C(=O)N[C@@H](Cc3ccccc3)C(=O)NCC(=O)N(C)CC(=O)N(C)[C@@H](CC(C)C)C(=O)N[C@@H](Cc3ccc(O)cc3)C(=O)C(=O)N3CCC[C@H]3C(=O)N2)C(=O)N[C@@H]([C@@H](C)O)C(=O)NCC(=O)N[C@@H](Cc2cnc[nH]2)C(=O)N[C@@H](Cc2ccccc2)C(=O)NCC(=O)N(C)CC(=O)N1C` (H-RF[Pen]TGHFG[Sar][NMeL][X1]PCG[NHCH2CH2N(Me)CH2CO]RF[Pen]TGHFG[Sar][NMeL][X1]PC-NH2; disulfide 3-13, 18-28): 3.9 nM; for `CC(C)C[C@H]1C(=O)N[C@@H](Cc2ccc(O)cc2)C(=O)C(=O)N2CCC[C@H]2C(=O)N[C@H](C(N)=O)CSSC(C)(C)[C@H](NC(=O)[C@H](Cc2ccccc2)NC(=O)[C@H](CCCNC(=N)N)NC(=O)CCNC(=O)CCNC(=O)CCNC(=O)CN(C)CCNC(=O)CCC(=O)N[C@@H](CCCNC(=N)N)C(=O)N[C@@H](Cc2ccccc2)C(=O)N[C@@H]2C(=O)N[C@@H]([C@@H](C)O)C(=O)NCC(=O)N[C@@H](Cc3cnc[nH]3)C(=O)N[C@@H](Cc3ccccc3)C(=O)NCC(=O)N(C)CC(=O)N(C)[C@@H](CC(C)C)C(=O)N[C@@H](Cc3ccc(O)cc3)C(=O)C(=O)N3CCC[C@H]3C(=O)N[C@H](C(N)=O)CSSC2(C)C)C(=O)N[C@@H]([C@@H](C)O)C(=O)NCC(=O)N[C@@H](Cc2cnc[nH]2)C(=O)N[C@@H](Cc2ccccc2)C(=O)NCC(=O)N(C)CC(=O)N1C`: 2.4 nM. Still for that read-out and setting: the value for `CC(C)C[C@H]1C(=O)N[C@@H](Cc2ccc(O)cc2)C(=O)C(=O)N2CCC[C@H]2C(=O)N[C@H](C(=O)N[C@@H](CC(N)=O)C(=O)NCC(=O)N2CCC[C@H]2C(N)=O)CCCCNC(=O)C[C@H](NC(=O)[C@H](Cc2ccccc2)NC(=O)CSCCC(=O)NCCC(=O)NCCCN(C)CCCNC(=O)CCNC(=O)CCSCC(=O)N[C@@H](CCC(N)=O)C(=O)N[C@@H](CCCNC(=N)N)C(=O)N[C@@H](Cc2ccccc2)C(=O)N[C@H]2CC(=O)NCCCC[C@@H](C(=O)N[C@@H](CC(N)=O)C(=O)NCC(=O)N3CCC[C@H]3C(N)=O)NC(=O)[C@@H]3CCCN3C(=O)C(=O)[C@H](Cc3ccc(O)cc3)NC(=O)[C@H](CC(C)C)N(C)C(=O)CN(C)C(=O)CNC(=O)[C@H](Cc3ccccc3)NC(=O)[C@H](Cc3cnc[nH]3)NC(=O)CNC(=O)[C@H]([C@@H](C)O)NC2=O)C(=O)N[C@@H]([C@@H](C)O)C(=O)NCC(=O)N[C@@H](Cc2cnc[nH]2)C(=O)N[C@@H](Cc2ccccc2)C(=O)NCC(=O)N(C)CC(=O)N1C` (I: QRFDTGHFG[Sar][NMeL][X1]PKNGP-NH2 / II: FDTGHFG[Sar][NMeL][X1]PKNGP-NH2; lactam I:4-I:14, II:2-II:12; linker I:N-II:N via X3) was 2400 nM.

In turn, `CC(C)C[C@H]1C(=O)N[C@@H](Cc2ccc(O)cc2)C(=O)C(=O)N2CCC[C@H]2C(=O)N[C@H](C(N)=O)CSSC(C)(C)[C@H](NC(=O)[C@H](Cc2ccccc2)NC(=O)[C@H](CCCNC(=N)N)NC(=O)CCC(=O)N[C@@H](CCCNC(=N)N)C(=O)N[C@@H](Cc2ccccc2)C(=O)N[C@@H]2C(=O)N[C@@H]([C@@H](C)O)C(=O)NCC(=O)N[C@@H](Cc3ccc(N=C(N)N)cc3)C(=O)NCC(=O)N(C)CC(=O)N(C)[C@@H](CC(C)C)C(=O)N[C@@H](Cc3ccc(O)cc3)C(=O)C(=O)N3CCC[C@H]3C(=O)N[C@H](C(N)=O)CSSC2(C)C)C(=O)N[C@@H]([C@@H](C)O)C(=O)NCC(=O)N[C@@H](Cc2ccc(N=C(N)N)cc2)C(=O)NCC(=O)N(C)CC(=O)N1C` (I: RF[Pen]TG[Phe(4-guanidino)]G[Sar][NMeL][X1]PC-NH2 / II: RF[Pen]TG[Phe(4-guanidino)]G[Sar][NMeL][X1]PC-NH2; disulfide I:3-I:12, II:3-II:12; linker I:N-II:N via Suc) returned an IC50 of 20 nM. As for `CC(C)C[C@H]1C(=O)N[C@@H](Cc2ccc(O)cc2)C(=O)C(=O)N2CCC[C@H]2C(=O)N[C@H](C(N)=O)CSSC(C)(C)[C@H](NC(=O)[C@H](Cc2ccccc2)NC(=O)[C@H](CCCNC(=N)N)NC(=O)CN(C)CC(=O)N[C@@H](CCCNC(=N)N)C(=O)N[C@@H](Cc2ccccc2)C(=O)N[C@@H]2C(=O)N[C@@H]([C@@H](C)O)C(=O)NCC(=O)N[C@@H](Cc3cnc[nH]3)C(=O)N[C@@H](Cc3ccccc3)C(=O)NCC(=O)N(C)CC(=O)N(C)[C@@H](CC(C)C)C(=O)N[C@@H](Cc3ccc(O)cc3)C(=O)C(=O)N3CCC[C@H]3C(=O)N[C@H](C(N)=O)CSSC2(C)C)C(=O)N[C@@H]([C@@H](C)O)C(=O)NCC(=O)N[C@@H](Cc2cnc[nH]2)C(=O)N[C@@H](Cc2ccccc2)C(=O)NCC(=O)N(C)CC(=O)N1C`, the IC50 amounted to 4.7 nM. For the molecule `CC(C)C[C@@H]1NC(=O)CNC(=O)CNC(=O)[C@H](Cc2ccccc2)NC(=O)[C@H](Cc2cnc[nH]2)NC(=O)CNC(=O)[C@H]([C@@H](C)O)NC(=O)[C@@H](NC(=O)[C@H](Cc2ccccc2)NC(=O)[C@H](CCCNC(=N)N)NC(=O)CCC(=O)NCCN(C)CC(=O)N[C@@H](CCCNC(=N)N)C(=O)N[C@@H](Cc2ccccc2)C(=O)N[C@H]2CSSC[C@@H](C(N)=O)NC(=O)[C@@H]3CCCN3C(=O)C(=O)[C@H](Cc3ccc(O)cc3)NC(=O)[C@H](CC(C)C)NC(=O)CNC(=O)CNC(=O)[C@H](Cc3ccccc3)NC(=O)[C@H](Cc3cnc[nH]3)NC(=O)CNC(=O)[C@H]([C@@H](C)O)NC2=O)CSSC[C@@H](C(N)=O)NC(=O)[C@@H]2CCCN2C(=O)C(=O)[C@H](Cc2ccc(O)cc2)NC1=O`, the IC50 came out at 3000 nM. On the same count and under the same terms, the same measure for `CC(C)C[C@H]1C(=O)N[C@@H](Cc2ccc(O)cc2)C(=O)C(=O)N2CCC[C@H]2C(=O)N[C@H](C(N)=O)CSSC(C)(C)[C@H](NC(=O)[C@H](Cc2ccccc2)NC(=O)[C@H](CCCNC(=N)N)NC(=O)CCC(=O)N[C@@H](CCCNC(=N)N)C(=O)N[C@@H](Cc2ccccc2)C(=O)N[C@@H]2C(=O)N[C@@H]([C@@H](C)O)C(=O)NCC(=O)N[C@@H](Cc3cnc[nH]3)C(=O)N[C@@H](Cc3ccccc3)C(=O)NCC(=O)N(C)CC(=O)N(C)[C@@H](CC(C)C)C(=O)N[C@@H](Cc3ccc(O)cc3)C(=O)C(=O)N3CCC[C@H]3C(=O)N[C@H](C(N)=O)CSSC2(C)C)C(=O)N[C@@H]([C@@H](C)O)C(=O)NCC(=O)N[C@@H](Cc2cnc[nH]2)C(=O)N[C@@H](Cc2ccccc2)C(=O)NCC(=O)N(C)CC(=O)N1C`: 2.4 nM.

Values taken from ChEMBL document CHEMBL1156264, “Synthesis and structure-activity relationships of dimeric peptide antagonists of the human immunoglobulin G-human neonatal Fc receptor (IgG-FcRn) interaction” (J Med Chem, 2010).
